Measurements from patent US20210045385A1, “PYRIDAZINONE-SUBSTITUTED KETOXIMES AS HERBICIDES” (FMC Corporation, priority 2018, published 2021).

Experiments:
Assay type in all cases: in vivo
[1] = test system: pigweed (Amaranthus retroflexus); assay: Test C preemergence, visual plant response rating
How it was run: (§1)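 Seeds sown in a loam–sand blend got a directed preemergence soil spray; postemergence plants (2–10 cm, one- to two-leaf stage) were sprayed with compound in a non-phytotoxic solvent plus surfactant. Injury was scored visually against untreated controls after about 10 d in a greenhouse on a 0–100 scale (100 = complete control).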

[2] = test system: barnyardgrass (Echinochloa crus-galli); assay: Test C preemergence, visual plant response rating
How it was run: as §1

[3] = test system: foxtail, giant (giant foxtail, Setaria faberi); assay: Test C preemergence, visual plant response rating
How it was run: as §1

[4] = test system: Italian ryegrass (Lolium mutiflorum); assay: Test C preemergence, visual plant response rating
How it was run: as §1

[5] = test system: ragweed (common ragweed, Ambrosia artemisiifolia); assay: Test C preemergence, visual plant response rating
How it was run: as §1

kochia (Bassia scoparia) [6] = assay: Test C preemergence, visual plant response rating
How it was run: as §1

[7] = test system: pigweed (Amaranthus retroflexus); assay: Test C postemergence, visual plant response rating
How it was run: as §1

[8] = test system: barnyardgrass (Echinochloa crus-galli); assay: Test C postemergence, visual plant response rating
How it was run: as §1

[9] = test system: foxtail, giant (giant foxtail, Setaria faberi); assay: Test C postemergence, visual plant response rating
How it was run: as §1

[10] = test system: galium (catchweed bedstraw, Galium aparine); assay: Test C postemergence, visual plant response rating
How it was run: as §1

[11] = test system: wheat (Triticum aestivum); assay: Test C postemergence, visual plant response rating
How it was run: as §1

[12] = test system: Italian ryegrass (Lolium mutiflorum); assay: Test C postemergence, visual plant response rating
How it was run: as §1

[13] = test system: ragweed (common ragweed, Ambrosia artemisiifolia); assay: Test C postemergence, visual plant response rating
How it was run: as §1

kochia (Bassia scoparia) [14] = assay: Test C postemergence, visual plant response rating
How it was run: as §1

corn (Zea mays) = assay: Test C postemergence, visual plant response rating
How it was run: as §1

[15] = test system: blackgrass (Alopecurus myosuroides); assay: Test C postemergence, visual plant response rating
How it was run: as §1

[16] = test system: barnyardgrass (Echinochloa crus-galli); assay: Test D flooded paddy test, visual plant response rating; conditions: 250 g ai/ha, scale 0 to 100 (0 no effect, 100 complete control), 13 to 15 d
How it was run: (§2)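 Greenhouse paddy assay scored on a 0–100 visual scale after 13 to 15 d, where 100 means complete control and a dash marks no result; dosing was into 3 cm floodwater over 2-leaf plants.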

[17] = test system: sedge umbrella (small-flower umbrella sedge, Cyperus difformis); assay: as above; conditions: 250 g ai/ha, scale 0 to 100 (0 no effect, 100 complete control), 13 to 15 d
How it was run: as §2

[18] = test system: duck salad (Heteranthera limosa); assay: as above; conditions: 250 g ai/ha, scale 0 to 100 (0 no effect, 100 complete control), 13 to 15 d
How it was run: as §2

rice (Oryza sativa) = assay: as above; conditions: 250 g ai/ha, scale 0 to 100 (0 no effect, 100 complete control), 13 to 15 d
How it was run: as §2

[19] = Test C, 31 g ai/ha, 0 is no effect, 100 is complete control
[20] = Test C, postemergence, 125 g ai/ha
[21] = Test C, postemergence, 31 g ai/ha

| SMILES | Pigweed plant response rating (0 to 100 scale) ([1]; 125 g ai/ha) | Pigweed plant response rating (0 to 100 scale) [1, 19] | Barnyardgrass plant response rating (0 to 100 scale) ([2]; 125 g ai/ha) | Barnyardgrass plant response rating (0 to 100 scale) [2, 19] | Foxtail, Giant plant response rating (0 to 100 scale) ([3]; 125 g ai/ha) | Foxtail, Giant plant response rating (0 to 100 scale) [3, 19] | Ryegrass, Italian plant response rating (0 to 100 scale) ([4]; 125 g ai/ha) | Ryegrass, Italian plant response rating (0 to 100 scale) [4, 19] | Ragweed plant response rating (0 to 100 scale) ([5]; 125 g ai/ha) | Ragweed plant response rating (0 to 100 scale) [5, 19] | Kochia plant response rating (0 to 100 scale) (kochia (Bassia scoparia) [6]; 125 g ai/ha) | Kochia plant response rating (0 to 100 scale) (kochia (Bassia scoparia) [6]; [19]) | Pigweed plant response rating (0 to 100 scale) ([7]; Postemergence, 31 g ai/ha) | Pigweed plant response rating (0 to 100 scale) [7, 20] | Barnyardgrass plant response rating (0 to 100 scale) [8, 20] | Foxtail, Giant plant response rating (0 to 100 scale) [9, 20] | Galium plant response rating (0 to 100 scale) [10, 20] | Wheat plant response rating (0 to 100 scale) ([11]; Postemergence, 31 g ai/ha) | Wheat plant response rating (0 to 100 scale) [11, 20] | Ryegrass, Italian plant response rating (0 to 100 scale) ([12]; Postemergence, 31 g ai/ha) | other results |
| --- | --- | --- | --- | --- | --- | --- | --- | --- | --- | --- | --- | --- | --- | --- | --- | --- | --- | --- | --- | --- | --- |
| CO/N=C(/c1cc(Cl)cc(Br)c1)c1c(O)c(C)nn(C)c1=O [Compound 156] | 80 | 40 | 80 | 0 | 100 | 50 | 100 | 100 | 100 | 100 | 100 | 40 | 70 | 80 | 70 | 90 | 100 | 0 | 50 | 100 | Barnyardgrass plant response rating (0 to 100 scale) [8, 21]: 40; Foxtail, Giant plant response rating (0 to 100 scale) [9, 21]: 60; Galium plant response rating (0 to 100 scale) [10, 21]: 100; Ryegrass, Italian plant response rating (0 to 100 scale) [12, 20]: 100; Ragweed plant response rating (0 to 100 scale) ([13]; Postemergence, 31 g ai/ha): 90; Ragweed plant response rating (0 to 100 scale) [13, 20]: 100; Kochia plant response rating (0 to 100 scale) (kochia (Bassia scoparia) [14]; [21]): 80; Kochia plant response rating (0 to 100 scale) (kochia (Bassia scoparia) [14]; [20]): 100; Corn plant response rating (0 to 100 scale) (corn (Zea mays); [21]): 20; Corn plant response rating (0 to 100 scale) (corn (Zea mays); [20]): 20; Blackgrass plant response rating (0 to 100 scale) [15, 21]: 30; Blackgrass plant response rating (0 to 100 scale) [15, 20]: 30; Plant response rating, Barnyardgrass (Flood) [16]: 0; Plant response rating, Sedge, Umbrella (Flood) [17]: 30; Plant response rating, Ducksalad (Flood) [18]: 30; Plant response rating, Rice (Flood) (rice (Oryza sativa)): 0 |
| CO/N=C(\c1cc(Cl)cc(Br)c1)c1c(O)c(C)nn(C)c1=O [Compound 157] | 40 | 10 | 90 | 70 | 100 | 80 | 100 | 90 | 100 | 100 | 100 | 50 | 20 | 60 | 80 | 90 | 100 | 0 | 60 | 70 | Barnyardgrass plant response rating (0 to 100 scale) [8, 21]: 30; Foxtail, Giant plant response rating (0 to 100 scale) [9, 21]: 60; Galium plant response rating (0 to 100 scale) [10, 21]: 90; Ryegrass, Italian plant response rating (0 to 100 scale) [12, 20]: 100; Ragweed plant response rating (0 to 100 scale) ([13]; Postemergence, 31 g ai/ha): 70; Ragweed plant response rating (0 to 100 scale) [13, 20]: 100; Kochia plant response rating (0 to 100 scale) (kochia (Bassia scoparia) [14]; [21]): 80; Kochia plant response rating (0 to 100 scale) (kochia (Bassia scoparia) [14]; [20]): 100; Corn plant response rating (0 to 100 scale) (corn (Zea mays); [21]): 10; Corn plant response rating (0 to 100 scale) (corn (Zea mays); [20]): 30; Blackgrass plant response rating (0 to 100 scale) [15, 21]: 10; Blackgrass plant response rating (0 to 100 scale) [15, 20]: 20; Plant response rating, Barnyardgrass (Flood) [16]: 0; Plant response rating, Sedge, Umbrella (Flood) [17]: 0; Plant response rating, Ducksalad (Flood) [18]: 0; Plant response rating, Rice (Flood) (rice (Oryza sativa)): 0 |
| Cc1nn(C)c(=O)c(/C(=N/OCc2ccccc2)c2ccc(F)c3ccccc23)c1O [Compound 158] | 50 | 0 | 30 | 20 | 80 | 10 | 0 | 0 | 40 | 40 | 0 | 0 | 50 | 50 | 70 | 70 | 0 | 0 | 0 | 0 | Barnyardgrass plant response rating (0 to 100 scale) [8, 21]: 50; Foxtail, Giant plant response rating (0 to 100 scale) [9, 21]: 30; Galium plant response rating (0 to 100 scale) [10, 21]: 90; Ryegrass, Italian plant response rating (0 to 100 scale) [12, 20]: 20; Ragweed plant response rating (0 to 100 scale) ([13]; Postemergence, 31 g ai/ha): 40; Ragweed plant response rating (0 to 100 scale) [13, 20]: 60; Kochia plant response rating (0 to 100 scale) (kochia (Bassia scoparia) [14]; [21]): 0; Kochia plant response rating (0 to 100 scale) (kochia (Bassia scoparia) [14]; [20]): 0; Corn plant response rating (0 to 100 scale) (corn (Zea mays); [21]): 0; Corn plant response rating (0 to 100 scale) (corn (Zea mays); [20]): 10; Blackgrass plant response rating (0 to 100 scale) [15, 21]: 0; Blackgrass plant response rating (0 to 100 scale) [15, 20]: 10; Plant response rating, Barnyardgrass (Flood) [16]: 45; Plant response rating, Sedge, Umbrella (Flood) [17]: 65; Plant response rating, Ducksalad (Flood) [18]: 50; Plant response rating, Rice (Flood) (rice (Oryza sativa)): 15 |
| CO/N=C(/c1c(O)c(C)nn(C)c1=O)c1cccc2cc(Cl)ccc12 [Compound 159] | 40 | 30 | 40 | 40 | 50 | 0 | 80 | 0 | 90 | 70 | 20 | 0 | 90 | 100 | 60 | 70 | 80 | 0 | 10 | 20 | Barnyardgrass plant response rating (0 to 100 scale) ([8]; Postemergence, 31 g ai/ha): 40; Foxtail, Giant plant response rating (0 to 100 scale) ([9]; Postemergence, 31 g ai/ha): 50; Galium plant response rating (0 to 100 scale) ([10]; Postemergence, 31 g ai/ha): 60; Ryegrass, Italian plant response rating (0 to 100 scale) [12, 20]: 80; Ragweed plant response rating (0 to 100 scale) ([13]; Postemergence, 31 g ai/ha): 70; Ragweed plant response rating (0 to 100 scale) [13, 20]: 90; Kochia plant response rating (0 to 100 scale) (kochia (Bassia scoparia) [14]; Postemergence, 31 g ai/ha): 70; Kochia plant response rating (0 to 100 scale) (kochia (Bassia scoparia) [14]; [20]): 80; Corn plant response rating (0 to 100 scale) (corn (Zea mays); Postemergence, 31 g ai/ha): 10; Corn plant response rating (0 to 100 scale) (corn (Zea mays); [20]): 30; Blackgrass plant response rating (0 to 100 scale) ([15]; Postemergence, 31 g ai/ha): 10; Blackgrass plant response rating (0 to 100 scale) [15, 20]: 30; Plant response rating, Barnyardgrass (Flood) [16]: 0; Plant response rating, Sedge, Umbrella (Flood) [17]: 0; Plant response rating, Ducksalad (Flood) [18]: 0; Plant response rating, Rice (Flood) (rice (Oryza sativa)): 0 |
